The term IC50 denotes the midpoint of a concentration-inhibition curve.

One compound from paper PMC7503713, “GANT61 Reduces Hedgehog Molecule (GLI1) Expression and Promotes Apoptosis in Metastatic Oral Squamous Cell Carcinoma Cells” (International Journal of Molecular Sciences, 2020) can be followed below.

Holding throughout (type): cell-based, human
One assay relates to SCC25. Put plainly: alamarBlue cytotoxicity assay, SCC25. As to conditions: 72 h of incubation. The procedure: (§1) To assess the cytotoxicity of the GLI inhibitor GANT61 (Sigma-Aldrich, St. Louis, MO, USA) in tumor and non-tumor cell lines, an alamarBlue assay (Sigma-Aldrich Chemical Co, St. Louis, MO, USA) was performed after 72 h of exposure to the inhibitor, as described by Ahmed et al., 1994 [46]. Cells were distributed on 96-well plates at a density of 7 × 10^4 cells/mL for adhered cells, and 3 × 10^5 cells/mL for cells in suspension. All tested compounds were dissolved in DMSO, added to wells containing 100 µL of cells in complete medium, and then incubated for 72 h. Eight concentrations of GANT61 (0.19 to 50 µg/mL), Doxorubicin (Laboratory IMA S.A.I.C., Buenos Aires, Argentina), and 5-Fluorouracil (5-FU, Sigma-Aldrich, St. Louis, MO, USA), both used as positive controls at concentrations ranging from 0.03 to 5 µg/mL, were added to respective wells. […] Absorbance was measured at 570 nm (reduced) and 595 nm (oxidized) wavelengths, using a Spectramax 190 plate reader (Molecular Devices; Sunnyvale, CA, USA).
(§2) Statistical analyses were performed, using GraphPad Prism v. […] Data were analyzed according to distribution along the normal Gaussian curve. […] Differences between groups resulting from in vitro assays were evaluated by ANOVA (analysis of variance) testing, followed by the Student–Newman–Keuls test. […]
In general terms: Alamar Blue is a resazurin reagent that responds to reducing activity.

The subject of the next assay is AGP01. Nature of the assay: alamarBlue cytotoxicity assay, AGP01. As to conditions: 72 h of incubation. The procedure:
as §1, §2

The test system of another assay is PTCH1 protein. Put plainly: Western blot of HH pathway proteins in HSC3 cells, PTCH1. As to conditions: HSC3, 18 and 36 µM, 24 h. The procedure: After culturing, HSC3 cells were washed with PBS and denatured by using cell lysis buffer containing 50 mM Tris-HCl (pH 7.4), 1% Triton X-100, 150 mM NaCl, 0.5 mM EGTA, 0.5 EDTA mM, and an anti-protease cocktail (Complete Pro-inhibitor Cocktail Tablets, Roche, Basel, Switzerland). Protein extracts (50 μg) were separated by SDS-PAGE and transferred to Hybond-C Extra (GE Healthcare, Chicago, IL, USA) nitrocellulose membranes. The following antibodies were used in the Western blot assay: mouse […] against Sonic Hedgehog (1:500, Clone 5 H4, Cat. number NBP2-22126, Novus Biologicals, Centennial, CO, USA), rabbit polyclonal against Gli1 (1:500, Novus Biologicals, Cat. number NB600-600), rabbit polyclonal against Patched 1 (1:500, Novus Biologicals, Cat.number NB200-118), and rabbit polyclonal against Smoothened (1:1000, Cat. number AB72130, Abcam, Cambridge, MA, USA). The secondary antibodies were anti-mouse IgG (1:10,000, Santa Cruz Biotechnology, Santa Cruz, CA, USA) and anti-rabbit IgG (1:10,000, GE Healthcare, Chicago, IL, USA). Signal detection was performed by using an ECL + Chemiluminescence Detection System (PerkinElmer, Villebon sur-Yvette, France). The antibody actin (1:10000, Cat. Number15 G5 A11/E2, Invitrogen, Carlsbad, CA, USA) was selected as an endogenous control for analysis of HH pathway component expression in HSC3 cells. […]

The next assay concerns PTCH1 mRNA. Nature of the assay: qPCR of HH pathway gene expression in HSC3 cells, PTCH1. As to conditions: HSC3, 36 µM, 12 h, not significant. The procedure: (§3) For total RNA isolation, HSC3 cells were plated on 6-well plates, at a density of 0.7 × 10^5 cells/mL (5 mL/well volume), and incubated overnight, followed by treatment with the GLI inhibitor for 12 h at both concentrations (18 and 36 µM).
(§4) All experiments were carried out under DNAse/RNAse-free conditions. Silica microcolumns were used for RNA extraction, using an RNeasy Plus Mini Kit (QIAGEN, Hilden, Germany). Extracted RNA was analyzed for quantity and purity, using a NanoDrop®® 1000 spectrophotometer (Thermo Fisher Scientific, Waltham, MA, USA).
(§5) Reverse transcription was performed by using Superscript VILO™ transcriptase enzyme (Invitrogen, Carlsbad, CA, USA). The cDNA samples were stored at −20 °C, until the time of use.
(§6) HH pathway component expression was evaluated in cells treated or not with GANT61 by qPCR, using TaqMan Gene Expression Assays^TM inventoried for the PTCH1 (Hs00181117_m1), GLI1 (Hs01110766_m1), GLI2 (Hs01119974_m1), and GLI3 (Hs00609233_m1) genes, as well as for B2 M (Hs99999907_m1). […]
(§7) Following amplification and dissociation runs, quantification cycle (Cq) values were obtained by using the ViiA7^TM System Operational Program (AppliedByosistems, Foster City, CA, USA). For relative quantification, the comparative method (2−∆∆Cq) described by Livak and Schmittgen, 2001 was used. […]
Background: In qPCR the cycle at which signal appears reflects the starting amount.

A further assay concerns GLI1 mRNA. Put plainly: qPCR of HH pathway gene expression in HSC3 cells, GLI1. The following applies: 12 h. The protocol: as §3, §4, §5, §6, §7
Another assay concerns SCC15. Nature of the assay: alamarBlue cytotoxicity assay, SCC15. As to conditions: 72 h of incubation. The protocol:
as §1, §2

The next assay concerns GLI2 mRNA. Nature of the assay: qPCR of HH pathway gene expression in HSC3 cells, GLI2. The following applies: HSC3, 18 and 36 µM, 12 h, not significant. The procedure:
as §3, §4, §5, §6, §7

The next assay has as its system APC03. Put plainly: alamarBlue cytotoxicity assay, APC03. The following applies: 72 h of incubation. The protocol: as §1, §2
For a further assay, the system named is SCC4. Nature of the assay: alamarBlue cytotoxicity assay, SCC4. As to conditions: 72 h of incubation. The procedure: as §1, §2

In the case of `CN(C)c1ccccc1CN1CCCN(Cc2ccccc2N(C)C)C1c1ccncc1` [GANT61], the IC50 in the assay on SCC25 was 53.3 µM; in the assay with AGP01 it was more than 116 µM; in the assay on SCC15, 72.7 µM; in the assay on APC03, more than 116 µM; in the assay with SCC4, 111 µM. The PTCH1 protein expression result with PTCH1 protein was “reduced levels”. The “mRNA expression of PTCH1” value with PTCH1 mRNA is listed as “Reductions in mRNA expression”. Moreover, the “mRNA expression of GLI1” value with GLI1 mRNA (HSC3, 18 µM, not significant) was “Reductions in mRNA expression”. Further, the “mRNA levels of GLI1” value with GLI1 mRNA (HSC3, 36 µM, vs negative (DMSO 0.2%) and positive (5-FU) controls) was “statistically significant reduction”. For the same compound, the “mRNA expression of GLI2” value with GLI2 mRNA is “Reductions in mRNA expression”.
